The source of these data is ChEMBL document CHEMBL1137286, “Vialinin B, a novel potent inhibitor of TNF-alpha production, isolated from an edible mushroom, Thelephora vialis” (Bioorg Med Chem Lett, 2006).

Molecules are shown by their SMILES.

This assay concerns RBL-2H3. The assay can be described thus: Inhibition of DNP7-BSA antigen-induced TNFalpha release in rat RBL-2H3 cells. It counts as functional, cell-based.

Broadly, the IC50 is the concentration at which inhibition is half-maximal. A low value points to greater potency in that assay. The molecule `Oc1ccc(-c2c(O)c(O)c3c(oc4cc(O)c(O)cc43)c2O)cc1` [CYCLOLEUCOMELONE] had an IC50 of 3500 nM.

For `O=C(Cc1ccccc1)Oc1c(-c2ccc(O)cc2)c(OC(=O)Cc2ccccc2)c2oc3cc(O)c(O)cc3c2c1OC(=O)Cc1ccccc1` [GANBAJUNIN B], the IC50 turned out to be 5000 nM. Under `C=CC[C@@H]1/C=C(\C)C[C@H](C)C[C@H](OC)[C@H]2O[C@@](O)(C(=O)C(=O)N3CCCC[C@H]3C(=O)O[C@H](/C(C)=C/[C@@H]3CC[C@@H](O)[C@H](OC)C3)[C@H](C)[C@@H](O)CC1=O)[C@H](C)C[C@@H]2OC` [TACROLIMUS ANHYDROUS] stands 0.25 nM; under `O=C(Cc1ccccc1)Oc1c(-c2ccc(O)cc2)c(O)c2oc3cc(O)c(O)cc3c2c1OC(=O)Cc1ccccc1` [VIALININ B], 0.02 nM.
